PubChem BioAssay (NCI)
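Where inhibition never reached the appropriate level, the endpoint shown equals the highest concentration tested. Otherwise, values were interpolated linearly from a five-concentration, 48-hour dose response in 96-well plates. GI50 is the concentration that inhibits growth by half. At the TGI there is no net growth.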

What was measured:
Assay in all cases: growth of human tumour cells (NCI), 48 h
[1] = test system: 786-0 renal
[2] = test system: A498 renal
[3] = test system: A549 NSCLC
[4] = test system: ACHN renal
[5] = test system: BT-549 breast
[6] = test system: CAKI-1 renal
[7] = test system: CCRF-CEM leukemia
[8] = test system: COLO 205 colon
[9] = test system: DU-145 prostate
[10] = test system: EKVX NSCLC
[11] = test system: HCC-2998 colon
[12] = test system: HCT-116 colon
[13] = test system: HCT-15 colon
[14] = test system: HL-60(TB) leukemia
[15] = test system: HOP-62 NSCLC
[16] = test system: HOP-92 NSCLC
[17] = test system: HS 578T breast
[18] = test system: HT29 colon
[19] = test system: IGROV1 ovarian
[20] = test system: KM12 colon
[21] = test system: LOX IMVI melanoma
[22] = test system: M14 melanoma
[23] = test system: MALME-3M melanoma
[24] = test system: MCF7 breast
[25] = test system: MDA-MB-231 breast
[26] = test system: MDA-MB-435
[27] = test system: MOLT-4 leukemia
[28] = test system: NCI-H226 lung
[29] = test system: NCI-H23 lung
[30] = test system: NCI-H460 lung
[31] = test system: NCI-H522 lung
[32] = test system: NCI/ADR-RES ovarian
[33] = test system: OVCAR-3 ovarian
[34] = test system: OVCAR-4 ovarian
[35] = test system: OVCAR-5 ovarian
[36] = test system: OVCAR-8 ovarian
[37] = test system: PC-3 prostate
[38] = test system: RPMI-8226 leukemia
[39] = test system: RXF 393 renal
[40] = test system: SF-268 CNS
[41] = test system: SF-295 CNS
[42] = test system: SF-539 CNS
[43] = test system: SK-MEL-2 melanoma
[44] = test system: SK-MEL-28 melanoma
[45] = test system: SK-MEL-5 melanoma
[46] = test system: SK-OV-3 ovarian
[47] = test system: SN12C renal
[48] = test system: SNB-19 CNS
[49] = test system: SNB-75 CNS
[50] = test system: SR leukemia
[51] = test system: SW-620 colon
[52] = test system: T-47D breast
[53] = test system: TK-10 renal
[54] = test system: U251 CNS
[55] = test system: UACC-257 melanoma
[56] = test system: UACC-62 melanoma
[57] = test system: UO-31 renal

In the case of COc1ccc(C(=O)/C=C/c2cccnc2Nc2cc(OC)c(OC)c(OC)c2)cc1, the GI50 [1] is reported as 1.22 µM, the TGI [1] is reported as 2.96 µM and the GI50 [2] is reported as 1.8 µM. For the same compound, the TGI [2] was 13.1 µM, the GI50 [3] was 1.67 µM and the TGI [3] was 18.5 µM. For the same compound, the GI50 [4] was 1.9 µM, the TGI [4] was 4.06 µM and the GI50 [5] was 3.1 µM. For the same compound, the TGI [5] was 11.6 µM, the GI50 [6] was 2.42 µM and the TGI [6] was 14.7 µM. It also gave a GI50 [7] of 0.711 µM, a TGI [7] of 6.15 µM and a GI50 [8] of 1.95 µM. For the same compound, the TGI [8] was 6.12 µM, the GI50 [9] was 4.89 µM and the TGI [9] was 17.1 µM. It also gave a GI50 [10] of 5.11 µM, a TGI [10] of 19.2 µM and a GI50 [11] of 1.35 µM. The TGI [11] was 2.85 µM, the GI50 [12] was 0.54 µM and the TGI [12] was 2.1 µM. For the same compound, the GI50 [13] was 0.884 µM, the TGI [13] was 3.86 µM and the GI50 [14] was 1.27 µM. The TGI [14] was 4.01 µM, the GI50 [15] was 2.19 µM and the TGI [15] was 12.7 µM. The GI50 [16] was 2.4 µM, the TGI [16] was 11.8 µM and the GI50 [17] was 5.31 µM. For the same compound, the TGI [17] was 38.6 µM, the GI50 [18] was 0.38 µM and the TGI [18] was 1.6 µM. The GI50 [19] was 3.03 µM, the TGI [19] was 21.3 µM and the GI50 [20] was 0.53 µM. The TGI [20] was 2.79 µM, the GI50 [21] was 0.738 µM and the TGI [21] was 2.28 µM. The GI50 [22] was 2.55 µM, the TGI [22] was 11.9 µM and the GI50 [23] was 6.32 µM. The TGI [23] was 20.1 µM, the GI50 [24] was 0.106 µM and the TGI [24] was 11 µM. For the same compound, the GI50 [25] was 2.67 µM, the TGI [25] was 12.4 µM and the GI50 [26] was 0.885 µM. For the same compound, the TGI [26] was 12.2 µM, the GI50 [27] was 2.26 µM and the TGI [27] was 7.64 µM. It also gave a GI50 [28] of 2.51 µM, a TGI [28] of 8.86 µM and a GI50 [29] of 2.24 µM. The TGI [29] was 17.6 µM, the GI50 [30] was 1.84 µM and the TGI [30] was 8.57 µM. For the same compound, the GI50 [31] was 0.93 µM, the TGI [31] was 2.65 µM and the GI50 [32] was 1 µM. It also gave a TGI [32] of 6.29 µM, a GI50 [33] of 0.617 µM and a TGI [33] of 4.72 µM. For the same compound, the GI50 [34] was 1.52 µM, the TGI [34] was 10.1 µM and the GI50 [35] was 3.36 µM. It also gave a TGI [35] of 10 µM, a GI50 [36] of 2.2 µM and a TGI [36] of 11 µM. It also gave a GI50 [37] of 1.53 µM, a TGI [37] of 10.1 µM and a GI50 [38] of 0.885 µM. It also gave a TGI [38] of 4.71 µM, a GI50 [39] of 1.47 µM and a TGI [39] of 5.36 µM. The GI50 [40] was 3.04 µM, the TGI [40] was 14.8 µM and the GI50 [41] was 1.71 µM. The TGI [41] was 18.9 µM, the GI50 [42] was 1.81 µM and the TGI [42] was 5.62 µM. The GI50 [43] was 7.27 µM, the TGI [43] was 21 µM and the GI50 [44] was 2.7 µM. For the same compound, the TGI [44] was 8.29 µM, the GI50 [45] was 2.2 µM and the TGI [45] was 10.6 µM. The GI50 [46] was 4.12 µM, the TGI [46] was 16.4 µM and the GI50 [47] was 2.43 µM. The TGI [47] was 9.69 µM, the GI50 [48] was 2.82 µM and the TGI [48] was 17.3 µM. The GI50 [49] was 3.4 µM, the TGI [49] was 17.6 µM and the GI50 [50] was 0.0949 µM. The TGI [50] was 2.43 µM, the GI50 [51] was 0.349 µM and the TGI [51] was 1.59 µM. It also gave a GI50 [52] of 1.94 µM, a TGI [52] of 15.6 µM and a GI50 [53] of 1.83 µM. It also gave a TGI [53] of 5.53 µM, a GI50 [54] of 0.926 µM and a TGI [54] of 7 µM. For the same compound, the GI50 [55] was 3.93 µM, the TGI [55] was 15 µM and the GI50 [56] was 1.71 µM. It also gave a TGI [56] of 4.38 µM, a GI50 [57] of 1.17 µM and a TGI [57] of 3.04 µM.
